# According to patent US10294202B2, “Pyrrolidinones as herbicides” (FMC Corporation, priority 2013, dated 2019):
# Key:
# deadnettle = experiment: Test C postemergence herbicide test; type: in vivo, Lamium amplexicaule
# Description: At the same time, plants selected from these crop and weed species and also barley (winter barley, Hordeum vulgare), […]), chickweed (common chickweed, Stellaria media), deadnettle (henbit deadnettle, Lamium amplexicaule), and canarygrass (littleseed canarygrass, Phalaris minor) were planted in pots containing Redi-Earth® planting medium (Scotts Company, 14111 Scottslawn Road, Marysville, Ohio 43041) comprising spaghnum peat moss, vermiculite, wetting agent and starter nutrients and treated with postemergence applications of test chemicals formulated in the same manner. Plants ranged in height from 2 to 18 cm (1- to 4-leaf stage) for postemergence treatments. Treated plants and controls were maintained in a greenhouse for 13 to 15 days, after which time all species were compared to controls and visually evaluated. Plant response ratings, summarized in Table C, are based on a scale of 0 to 100 where 0 is no effect and 100 is complete control. A dash (-) response means no test result.
# corn (ZEAMD) = experiment: Test H preemergence mixture test (Colby); type: in vivo, Zea mays; conditions: for Plant response rating, Obsd., ZEAMD: 21 d after treatment, scale 0 to 100; for ZEAMD Obsd.: applied alone, 21 d, mean of three replicates, scale 0-100
# [1] = test system: transplanted japonica rice (ORYSA); experiment: Test G paddy mixture test (Colby); type: in vivo, Oryza sativa; conditions: applied alone, 14 d; for ORYSA Obsd.: scale 0-100; for ORYSA Obsd. plant response rating (scale 0 to 100): flooded
# Method: Seeds of small-flower umbrella […], Cyperus difformis) and […], Heteranthera limosa) were sown on the soil surface in two separate quadrants of 11-cm (4-inch) tubs filled with steam pasteurized Tama soil. Simultaneously, plantings of […], Echinochloa crus-galli) and transplanted japonica rice (ORYSA, Oryza sativa) were established in separate “plug” flats. […] Herbicide application timing was targeted at the 2.0 to 2.5 leaf stage and the plants were treated with test chemicals formulated in a non-phytotoxic solvent. Treated plants and controls were maintained in a greenhouse for 14 d, after which time all species were compared to controls and visually evaluated. Plant response ratings are summarized in Tables G1 through G12, and are based on a scale of 0 to 100 where 0 is no effect and 100 is complete control. A dash (-) response means no test result. Colby's Equation was used to determine the herbicidal effects expected from the mixtures. Colby's Equation (Colby, S. R. “Calculating Synergistic and Antagonistic Responses of Herbicide Combinations,” Weeds, 15(1), pp 20-22 (1967)) calculates the expected additive effect of herbicidal mixtures and for two active ingredients is of the form: Pa+b=Pa+Pb-(PaPb/100) where • Pa+b is the percentage effect of the mixture expected from additive contribution of the individual components: • Pa is the observed percentage effect of the first active ingredient at the same use rate as in the mixture, and • Pb is the observed percentage effect of the second active ingredient at the same use rate as in the mixture. In the following Tables, rates are shown in grams of active ingredient per […]); “Obsd.” is the observed effect. “Exp.” is the expected effect calculated from Colby's Equation.
smiles,measurement,setting,value
"O=C1NCC(c2ccc(F)c(F)c2)C1C(=O)Nc1cccc(F)c1F (stereo not drawn) [Compound 17, N-(2,3-difluorophenyl)-4-(3,4-difluorophenyl)-2-oxo-3-pyrrolidinecarboxamide]","Plant response rating, Deadnettle","deadnettle; 31 g ai/ha, scale 0 (no effect) to 100 (complete control)",0
same,"Plant response rating, Deadnettle","deadnettle; 62 g ai/ha, scale 0 to 100 (0 no effect, 100 complete control)",0
same,"Plant response rating, Deadnettle","deadnettle; 125 g ai/ha, scale 0 to 100 (0 no effect, 100 complete control)",0
same,"Plant response rating, Deadnettle","deadnettle; 250 g ai/ha, scale 0 to 100 (0 no effect, 100 complete control)",0
"O=C1NCC(c2ccc(C(F)(F)F)cc2)C1C(=O)Nc1cccc(F)c1F (stereo not drawn) [Compound 80, N-(2,3-difluorophenyl)-2-oxo-4-[4-(trifluoromethyl)phenyl]-3-pyrrolidinecarboxamide]","Plant response rating, Obsd., ZEAMD",corn (ZEAMD); Cmpd 80 alone 62 g a.i./ha,17
same,"Plant response rating, Obsd., ZEAMD",corn (ZEAMD); Cmpd 80 alone 125 g a.i./ha,13
same,ZEAMD Obsd.,corn (ZEAMD); 62 g a.i./ha,17
same,ZEAMD Obsd.,corn (ZEAMD); 125 g a.i./ha,13
"O=C1NC[C@H](c2cccc(C(F)(F)F)c2)[C@H]1C(=O)Nc1ccccc1F [Compound 204, (3R,4S)—N-(2-fluorophenyl)-2-oxo-4-[3-(trifluoromethyl)phenyl]-3-pyrrolidinecarboxamide]",ORYSA Obsd.,[1]; 125 g a.i./ha,0
same,ORYSA Obsd. plant response rating (scale 0 to 100),[1]; 125 g a.i./ha,0
same,ORYSA Obsd.,[1]; 500 g a.i./ha,0
same,ORYSA Obsd. plant response rating (scale 0 to 100),[1]; 500 g a.i./ha,0
